Measurements from PMC5872323, “The Plant Defensin NaD1 Enters the Cytoplasm of Candida albicans via Endocytosis” (Journal of Fungi, 2018).
Where no end group is shown, it is not given here.

Assays:
[1] = tested on: C. albicans DAY185; test: Confocal microscopy of BODIPY-NaD1 uptake after CCCP or latrunculin A pre-treatment (cell counts); assay type: cell-based, Candida albicans; settings: 0 µM CCCP (no-inhibitor control), 10 µM BODIPY-NaD1 for 10 min, n = 4
Description: C. albicans DAY185 overnight cultures were diluted in half-strength potato dextrose broth (PDB; Becton Dickinson, Scoresby, Australia) to an OD600 of 0.2 and grown for a further three hours (30 °C, 250 rpm). Cells were then diluted to an OD600 of 0.3 with half-strength PDB. For time course experiments, 300 µL aliquots (in 1.5 mL microcentrifuge tubes) were pre-treated with 5 µM propidium iodide (PI; Sigma, St Louis, MO, USA) for 10 min prior to addition of BODIPY- labelled NaD1. For CCCP and latrunculin A experiments, yeast cells were pre-treated with 50 µM CCCP (Sigma) or 100 µM latrunculin A (AdipoGen, Liestal, Switzerland) for 2 h (30 °C, 250 rpm) before addition of 5 µM PI. BODIPY-NaD1 (10 µM) was then added and cells were monitored using a Zeiss LSM510/ConfoCor confocal with images taken every 5 sec. BODIPY was excited at 488 nm (Argon laser) and emission was detected at 505 to 530 nm. PI was excited at 561 nm (DPSS laser) and fluorescence was monitored at 575 to 615 nm. Images were captured using Zen2009 (Zeiss, Oberkochen, Germany) software and analysed using FIJI (Bethesda, Rockville, MD, USA). Brightness and contrast for Figure 1, Figure 3 and Figure 4 were adjusted using the auto-brightness/contrast function of FIJI.
Figure 3 NaD1 uptake is reduced after treatment with CCCP. […]

[2] = tested on: C. albicans DAY185; test: Flow cytometry BODIPY-NaD1 uptake at 30 °C or 4 °C; assay type: cell-based, Candida albicans; settings: 0, 5 or 10 µM BODIPY-NaD1, 30 min, half-strength PDB, three biological replicates
Description: (§1) C. albicans DAY185 overnight cultures were diluted in half-strength potato dextrose broth (PDB) to an OD600 of 0.2 and grown for 3 h (30 °C, 250 rpm) before they were diluted again to an OD600 of 0.1 with half-strength PDB and used in cell death and NaD1 uptake assays. Cell death assays were conducted by treating 300 µL of C. albicans cells with 0, 5, 10 or 20 µM of native NaD1 or LL-37 and 5 µM PI. NaD1 uptake at 4 °C was measured by treating 300 µL of cells with 0, 5 or 10 µM BODIPY-labelled NaD1. All treatments were conducted for 30 min at either 30 °C or 4 °C without shaking and in the dark. […] For BODIPY-labelled NaD1, cells were excited at 488 nm and emission was detected using a 530/30 filter. For PI, cells were excited at 488 nm and emission was detected using a 670LP filter. Data were analysed using Weasel v3.0 (Walter and Eliza Hall Institute, Parkville, Australia).
(§2) Figure 2 NaD1 induced cell death and uptake is reduced at 4 °C. […] PI (5 µM) was added for quantitation of cell death. Cells with PI fluorescence were counted using a flow cytometer to separate living and dead cells at both 30 °C (grey shading) and 4 °C (black line). Data is a representative example from three independent experiments; (Aii) The percentage of PI positive cells (percent cell death) relative to total cell counts was also calculated for three biological replicates and is shown in a bar graph. […]

[3] = tested on: C. albicans DAY185; settings: growth inhibition of C. albicans DAY185, previously reported; cited from earlier work
[4] = tested on: C. albicans vps28Δ; test: Fungal growth inhibition assay, ESCRT mutant; assay type: cell-based, Candida albicans; settings: half-strength PDB, 30 °C, 24 h, absorbance 595 nm, IC50 ± standard deviation, n = 4
Excerpt: (§3) All C. albicans strains were obtained from the fungal genetic stock centre and are described in [26, 27, 28]. Strains were derived from the BWP17 background strain (ura3::imm434/ura3::imm434 iro1/iro1::imm434 his1::hisG/his1::hisG arg4/arg4). The DAY185 wild-type C. albicans strain (ARG4+, URA3+, HIS1+) was used in most assays. For testing of C. albicans ESCRT mutants, DAY286 (ARG4+, URA3+, his1-) was used as the wild-type strain. C. albicans ESCRT (ARG4+, URA3+, his1-) mutants were produced by transposon insertion. Strains were grown in yeast extract-peptone dextrose (YPD) at 30 °C with shaking (250 rpm). For C. albicans mutant strains, YPD was supplemented with 80 µg/mL uridine.
(§4) Fungal growth inhibition assays were performed essentially as described in [30]. Overnight cultures of C. albicans cells were diluted to 5000 cells/mL with half-strength PDB. For growth inhibition assays in the presence of latrunculin A, 80 µL of diluted C. albicans DAY185 cells were added to 10 µL of latrunculin A and 10 µL of NaD1 in a 96 well microtiter plate (Greiner, Kremsmünster, Austria) to final concentrations of 2.5, 3, 4 and 4.5 µM NaD1 and 0 or 20 μM latrunculin A (AdipoGen). For brefeldin A and nocodazole assays, 80 µL of diluted C. albicans DAY185 cells was added to 10 µL of inhibitor and 10 µL of NaD1 in a microtiter plate. Brefeldin A (Sigma) and nocodazole where serially diluted (two-fold) down the plate with top final concentrations of 40 µM and 20 µM respectively. NaD1 was added to all wells at a final concentration of 2.5 µM. No-inhibitor controls were also included. For testing the antifungal activity of NaD1 against the C. albicans ESCRT mutants, 80 µL of diluted cells (DAY286 wild type and mutants) were added to 20 µL of NaD1 serially diluted from a top final concentration of 10 µM. All plates were incubated at 30 °C overnight without shaking. Growth of cells was monitored by measuring absorbance at 595 nm in a SpectraMAX M5e plate reader (Molecular Devices, San Jose, CA, USA). Measurements were taken at t = 0 and t = 24 h.

[5] = tested on: C. albicans vps23Δ; test: Fungal growth inhibition assay, ESCRT mutant; assay type: cell-based, Candida albicans; settings: half-strength PDB, 30 °C, 24 h, absorbance 595 nm, IC50 ± standard deviation, n = 4
Excerpt: as §3, §4

[6] = tested on: C. albicans vps2Δ; test: Fungal growth inhibition assay, ESCRT mutant; assay type: cell-based, Candida albicans; settings: half-strength PDB, 30 °C, 24 h, absorbance 595 nm, IC50 ± standard deviation, n = 4
Excerpt: as §3, §4

[7] = tested on: C. albicans vps24Δ; test: Fungal growth inhibition assay, ESCRT mutant; assay type: cell-based, Candida albicans; settings: half-strength PDB, 30 °C, 24 h, absorbance 595 nm, IC50 ± standard deviation, n = 4
Excerpt: as §3, §4

[8] = tested on: C. albicans snf7Δ; test: Fungal growth inhibition assay, ESCRT mutant; assay type: cell-based, Candida albicans; settings: half-strength PDB, 30 °C, 24 h, absorbance 595 nm, IC50 ± standard deviation, n = 4
Excerpt: as §3, §4

[9] = tested on: C. albicans bro1Δ; test: Fungal growth inhibition assay, ESCRT mutant; assay type: cell-based, Candida albicans; settings: half-strength PDB, 30 °C, 24 h, absorbance 595 nm, IC50 ± standard deviation, n = 4
Excerpt: as §3, §4

[10] = tested on: C. albicans vps36Δ; test: Fungal growth inhibition assay, ESCRT mutant; assay type: cell-based, Candida albicans; settings: half-strength PDB, 30 °C, 24 h, absorbance 595 nm, IC50 ± standard deviation, n = 4
Excerpt: as §3, §4

[11] = tested on: C. albicans DAY286 (WT); test: Fungal growth inhibition assay, ESCRT wild type; assay type: cell-based, Candida albicans; settings: half-strength PDB, 30 °C, 24 h, absorbance 595 nm, IC50 ± standard deviation, n = 4
Excerpt: as §3
Fungal growth inhibition assays were performed essentially as described in [30]. Overnight cultures of C. albicans cells were diluted to 5000 cells/mL with half-strength PDB. For growth inhibition assays in the presence of latrunculin A, 80 µL of diluted C. albicans DAY185 cells were added to 10 µL of latrunculin A and 10 µL of NaD1 in a 96 well microtiter plate (Greiner, Kremsmünster, Austria) to final concentrations of 2.5, 3, 4 and 4.5 µM NaD1 and 0 or 20 μM latrunculin A (AdipoGen). […] Growth of cells was monitored by measuring absorbance at 595 nm in a SpectraMAX M5e plate reader (Molecular Devices, San Jose, CA, USA). […]

[12] = tested on: C. albicans DAY185; test: Fungal growth inhibition assay; assay type: cell-based, Candida albicans; settings: half-strength PDB, 30 °C, 24 h, absorbance 595 nm, n = 3
Description: as §4

[13] = tested on: C. albicans DAY185; test: Flow cytometry cell death assay (PI positive cells) at 30 °C or 4 °C; assay type: cell-based, Candida albicans; settings: 0, 5, 10 or 20 µM peptide, 5 µM PI, 30 min, half-strength PDB, three biological replicates
Description: as §1, §2

Substance | cells with BODIPY-labelled NaD1 accumulated on the cell surface, relative to total cell counts [1] | cells containing BODIPY-labelled NaD1 in the cytoplasm at 4 °C compared to 30 °C [2] | IC50 [3] [nM] | IC50 [4] [nM] | IC50 [5] [nM] | IC50 [6] [nM] | IC50 [7] [nM] | IC50 [8] [nM] | IC50 [9] [nM] | IC50 [10] [nM] | IC50 [11] [nM] | growth of cells with NaD1 plus brefeldin A versus NaD1 only ([12]; 2.5 µM NaD1 with 20 µM brefeldin A) | growth inhibition by NaD1 in the presence of latrunculin A ([12]; 2.5 µM NaD1 with 20 µM latrunculin A, 5000 cells/mL) | growth of cells with NaD1 plus nocodazole versus NaD1 only ([12]; 2.5 µM NaD1 with 20 µM nocodazole) | protection of cells from NaD1 by latrunculin A ([12]; 4 µM NaD1 with 20 µM latrunculin A, 5000 cells/mL) | cell death (PI positive cells) at 4 °C compared to 30 °C [13]
BODIPY-NaD1: NaD1 fluorescently labelled with BODIPY-FL-EDA (RECKTESNTFPGICITKPPCRKACISEKFTDGHCSKILRRCLCTKPC; BODIPY-FL-EDA label; UniProt Q8GTM0 26-72, looked up) | about 21% | Fewer cells | – | – | – | – | – | – | – | – | – | – | – | – | – | –
NaD1: plant defensin from ornamental tobacco, purified from the flowers of Nicotiana alata (RECKTESNTFPGICITKPPCRKACISEKFTDGHCSKILRRCLCTKPC; ends and bridges not checked; cysteine pairing not given here; UniProt Q8GTM0 26-72, looked up) | – | – | 2300 ± 600 | 1600 ± 330 | 1800 ± 430 | 1800 ± 400 | 2100 ± 330 | 1900 ± 450 | 2100 ± 350 | 1700 ± 280 | 1800 ± 490 | No significant difference | reduced | No significant difference | did not protect | less cell death
